Source: patent US9493466B2, “Treatment of cancer with TOR kinase inhibitors” (Signal Pharmaceuticals, LLC, priority 2011, dated 2016)

Legend:
Assay in all cases: Growth inhibition assay for breast cancer
Type in all cases: cell-based
MCF12A = MCF12A (Basal, TN), 96 hours
Excerpt: (§1) Growth Inhibition Assay for Breast Cancer (BC) (Compound 1). All breast cancer cell lines were maintained and tested in appropriate culture media. The seeding density for each cell line was optimized to ensure assay linearity in 384-well plates.
(§2) Increasing concentrations of Compound 1 were spotted via an acoustic dispenser (EDC ATS-100) into an empty 384-well plate. Compound 1 was spotted in a 10-point serial dilution fashion (3-fold dilution) in duplicate within the plate. The dimethyl sulfoxide (DMSO) concentration was kept constant for a final assay concentration of 0.1% DMSO. Plates were replicated for use against different cell lines and testing periods. After compound plate replication, all plates were sealed (Agilent ThermoLoc) and stored at −20° C. for up to 1 month. When ready for testing, plates were removed from the freezer, thawed, and unsealed just prior to the addition of the test cell.
(§3) Prior to testing, cells were grown and expanded in culture flasks to provide sufficient amounts of starting material. Cells were then diluted to their desired densities and added directly to the Compound 1-spotted 384-well plates. Cells were allowed to grow for 96 hours at 37° C./5% CO2. At the time of setup (t0), initial cell number was assessed via a viability assay (Cell Titer-Glo) and read for luminescence. After 96 hours, cell viability of Compound 1-treated cells was assessed via Cell Titer-Glo and read for luminescence.
(§4) Cell lines were assayed for growth inhibition by Compound 1 for at least two independent tests. All data was normalized and represented as a percentage of the DMSO-treated control cells. […] The potency of Compound 1 in different subtypes of breast cancer cell lines is shown in FIG. 7A, while the correlation of Compound 1 sensitivity to ER, HER, PIK3CA, and TP53 status is shown in FIG. 7B.

HS578T = HS578T (Basal, TN), 96 hours
Excerpt: as §1, §2, §3, §4

HCC70 = HCC70 (Basal, TN), 96 hours
Excerpt: as §1, §2, §3, §4

MDA-MB-435 = MDA-MB-435 (Basal, TN), 96 hours
Excerpt: as §1, §2, §3, §4

HCC1187 = HCC1187 (Basal, TN), 96 hours
Excerpt: as §1, §2, §3, §4

CAL-120 = CAL-120 (Basal, TN), 96 hours
Excerpt: as §1, §2, §3, §4

HCC1428 = HCC1428 (Luminal, ER+), 96 hours
Excerpt: as §1, §2, §3, §4

MDA-MB-453 = MDA-MB-453 (Luminal, Her2+), 96 hours
Excerpt: as §1, §2, §3, §4

MCF10A = MCF10A (Basal, TN), 96 hours
Excerpt: as §1, §2, §3, §4

BT-474 = BT-474 (Luminal, Her2+), 96 hours
Excerpt: as §1, §2, §3, §4

HCC1500 = HCC1500 (Luminal, ER+), 96 hours
Excerpt: as §1, §2, §3, §4

HCC2157 = HCC2157 (Basal, TN), 96 hours
Excerpt: as §1, §2, §3, §4

KPL-1 = KPL-1 (Luminal, ER+), 96 hours
Excerpt: as §1, §2, §3, §4

UACC-812 = UACC-812 (Luminal, Her2+), 96 hours
Excerpt: as §1, §2, §3, §4

MDA-MB-468 = MDA-MB-468 (Basal, TN), 96 hours
Excerpt: as §1, §2, §3, §4

HCC1569 = HCC1569 (Basal, Her2+), 96 hours
Excerpt: as §1, §2, §3, §4

DU4475 = DU4475 (Basal, TN), 96 hours
Excerpt: as §1, §2, §3, §4

MDA-MB-134-VI = MDA-MB-134-VI (Luminal, ER+), 96 hours
Excerpt: as §1, §2, §3, §4

ZR-75-1 = ZR-75-1 (Luminal, ER+), 96 hours
Excerpt: as §1, §2, §3, §4

HCC202 = HCC202 (Luminal, Her2+), 96 hours
Excerpt: as §1, §2, §3, §4

MDA-MB-157 = MDA-MB-157 (Basal, TN), 96 hours
Excerpt: as §1, §2, §3, §4

MDA-MB-436 = MDA-MB-436 (Basal, TN), 96 hours
Excerpt: as §1, §2, §3, §4

CAL-51 = CAL-51 (Basal, TN), 96 hours
Excerpt: as §1, §2, §3, §4

HCC38 = HCC38 (Basal, TN), 96 hours
Excerpt: as §1, §2, §3, §4

BT-20 = BT-20 (Basal, TN), 96 hours
Excerpt: as §1, §2, §3, §4

BT-549 = BT-549 (Basal, TN), 96 hours
Excerpt: as §1, §2, §3, §4

CAMA-1 = CAMA-1 (Luminal, ER+), 96 hours
Excerpt: as §1, §2, §3, §4

MDA-MB-231 = MDA-MB-231 (Basal, TN), 96 hours
Excerpt: as §1, §2, §3, §4

MDA-MB-361 = MDA-MB-361 (Luminal, Her2+), 96 hours
Excerpt: as §1, §2, §3, §4

MCF7 = MCF7 (Luminal, ER+), 96 hours
Excerpt: as §1, §2, §3, §4

MDA-MB-415 = MDA-MB-415 (Luminal, ER+), 96 hours
Excerpt: as §1, §2, §3, §4

CO[C@H]1CC[C@H](N2C(=O)CNc3ncc(-c4ccc(C(C)(C)O)nc4)nc32)CC1 [Compound 1, 7-(6-(2-hydroxypropan-2-yl)pyridin-3-yl)-1-((1r,4r)-4-methoxycyclohexyl)-3,4-dihydropyrazino-[2,3-b]pyrazin-2(1H)-one]
GI50 (MCF12A): 44.4 nM | GI50 (HS578T): 343 nM | GI50 (HCC70): 172 nM | GI50 (MDA-MB-435): 222 nM | GI50 (HCC1187): 567 nM | GI50 (CAL-120): 700 nM | GI50 (HCC1428): 98.4 nM | GI50 (MDA-MB-453): 143 nM | GI50 (MCF10A): 147 nM | GI50 (BT-474): 226 nM | GI50 (HCC1500): 24.8 nM | GI50 (HCC2157): 399 nM | GI50 (KPL-1): 97.3 nM | GI50 (UACC-812): 47.8 nM | GI50 (MDA-MB-468): 1860 nM | GI50 (HCC1569): 356 nM | GI50 (DU4475): 1240 nM | GI50 (MDA-MB-134-VI): 101 nM | GI50 (ZR-75-1): 32.1 nM | GI50 (HCC202): 20.1 nM | GI50 (MDA-MB-157): 4.34 µM | GI50 (MDA-MB-436): 2990 nM | GI50 (CAL-51): 119 nM | GI50 (HCC38): 2950 nM | GI50 (BT-20): 330 nM | GI50 (BT-549): 149 nM | GI50 (CAMA-1): 146 nM | GI50 (MDA-MB-231): 710 nM | GI50 (MDA-MB-361): 65.7 nM | GI50 (MCF7): 181 nM | GI50 (MDA-MB-415): 169 nM
